Laboratory results from ChEMBL document CHEMBL4028904, “Discovery of a Novel Series of Tankyrase Inhibitors by a Hybridization Approach” (J Med Chem, 2017).

Columns and labels:
[1] = target: T1, Poly [ADP-ribose] polymerase tankyrase-2 (Homo sapiens, UniProt Q9H2K2); assay: Inhibition of TNKS2 (unknown origin) expressed in HEK293 cells assessed as inhibition of Wnt3a-induced Wnt/beta-catenin signaling after 24 hrs by luciferase reporter gene assay; format: cell-based
T1 sequence (Q9H2K2 whole entry): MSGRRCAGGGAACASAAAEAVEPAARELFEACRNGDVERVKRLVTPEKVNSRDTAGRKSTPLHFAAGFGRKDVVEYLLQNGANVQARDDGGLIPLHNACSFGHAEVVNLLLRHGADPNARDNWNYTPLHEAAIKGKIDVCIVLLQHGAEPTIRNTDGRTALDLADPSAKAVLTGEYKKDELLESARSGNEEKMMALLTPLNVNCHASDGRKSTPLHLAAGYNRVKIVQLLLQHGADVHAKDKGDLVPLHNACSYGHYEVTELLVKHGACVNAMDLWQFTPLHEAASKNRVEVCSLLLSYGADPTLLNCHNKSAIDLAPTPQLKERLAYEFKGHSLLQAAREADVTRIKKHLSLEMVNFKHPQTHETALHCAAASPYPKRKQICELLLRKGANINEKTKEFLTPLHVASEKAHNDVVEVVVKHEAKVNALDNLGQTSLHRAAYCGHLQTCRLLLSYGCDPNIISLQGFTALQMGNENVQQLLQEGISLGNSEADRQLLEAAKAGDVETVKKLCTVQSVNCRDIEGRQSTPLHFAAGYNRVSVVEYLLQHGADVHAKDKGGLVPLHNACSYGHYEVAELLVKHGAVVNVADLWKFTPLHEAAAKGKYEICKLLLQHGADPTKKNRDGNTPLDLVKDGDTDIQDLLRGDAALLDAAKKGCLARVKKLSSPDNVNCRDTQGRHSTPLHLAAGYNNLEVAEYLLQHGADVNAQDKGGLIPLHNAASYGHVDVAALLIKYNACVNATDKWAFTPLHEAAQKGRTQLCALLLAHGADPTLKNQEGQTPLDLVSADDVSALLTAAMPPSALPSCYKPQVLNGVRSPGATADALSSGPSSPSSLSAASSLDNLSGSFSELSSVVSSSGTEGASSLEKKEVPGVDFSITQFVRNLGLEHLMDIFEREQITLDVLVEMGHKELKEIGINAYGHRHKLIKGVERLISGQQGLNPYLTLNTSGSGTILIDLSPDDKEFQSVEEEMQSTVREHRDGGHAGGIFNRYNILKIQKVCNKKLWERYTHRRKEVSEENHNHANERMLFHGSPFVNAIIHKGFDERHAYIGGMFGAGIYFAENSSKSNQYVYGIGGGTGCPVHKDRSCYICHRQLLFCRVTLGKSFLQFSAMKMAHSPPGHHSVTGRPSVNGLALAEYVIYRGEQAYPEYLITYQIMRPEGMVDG

[2] = target: T1, Poly [ADP-ribose] polymerase tankyrase-2; assay: Inhibition of human TNKS2 (873 to 1162 residues) assessed as reduction in NAD+ consumption by fluorescence assay
[3] = target: T1, Poly [ADP-ribose] polymerase tankyrase-2; assay: Inhibition of TNKS2 (unknown origin) transfected in human SW480 cells assessed as inhibition of Wnt3a-induced Wnt/beta-catenin signaling after 48 hrs by ST-luciferase reporter gene assay; format: cell-based

Row | IC50 [1] [nM] | IC50 [2] [nM] | IC50 [3] [nM] | Compound
1 | > 10000 | 340 |  | N#Cc1ccc2c(c1)[nH]c(=O)n2-c1ccc(-c2nnc(-c3ccncn3)n2-c2ccccc2Cl)cc1
2 | 200 | 9.8 | 410 | O=c1[nH]c2ccccc2n1[C@H]1C[C@H](c2nnc(-c3ccncn3)n2-c2ccccc2Cl)C1
3 | 1060 | 430 | 1800 | O=c1[nH]c2ccccc2n1[C@H]1CC[C@H](c2nnc(-c3ccncn3)n2-c2ccccc2Cl)CC1
